# Like-named read-outs stand apart in the source and are kept apart here.
# What was measured:
# Format in all cases: cell-based
# Glomerella cingulata = experiment: Antibacterial and Antifungal Activities (in Agricultural Field), MIC; details: Colletotrichum gloeosporioides, read-out: Minimal Inhibitory Conc. (MIC)
# [1] = system: Pullularia pullulans IAM F-24; experiment: Antifungal Activity (in Industrial Field), MIC; details: IAMF24; Pullularia pullulans IAM F-24; read-out: Minimal Inhibitory Conc. (MIC)
# Phricularia oryzae = experiment: Antibacterial and Antifungal Activities (in Agricultural Field), MIC; details: read-out: Minimal Inhibitory Conc. (MIC)
# [2] = system: Aspergillus fumigatus IAM 2621; experiment: Antifungal Activity (in Industrial Field), MIC; details: IAM2621, read-out: Minimal Inhibitory Conc. (MIC)
# [3] = system: Fusarium oxysporum f. lycopersici; experiment: Antibacterial and Antifungal Activities (in Agricultural Field), MIC; details: read-out: Minimal Inhibitory Conc. (MIC)
# [4] = system: Chaetomium globosum ATCC 6205; experiment: Antifungal Activity (in Industrial Field), MIC; details: ATCC6205, read-out: Minimal Inhibitory Conc. (MIC)
# [5] = system: Corynebacterium michiganense; experiment: Antibacterial and Antifungal Activities (in Agricultural Field), MIC; details: Clavibacter michiganensis; Corynebacterium michiganense; read-out: Minimal Inhibitory Conc. (MIC)
# Salmonella typhi O-901-W = experiment: Antibacterial Activity (in medicinal field), MIC; details: Salmonella enterica, read-out: Minimal Inhibitory Conc. (MIC)
# [6] = system: Shigella sonnei EW 33 Type I; experiment: Antibacterial Activity (in medicinal field), MIC; details: EW33TYPEI; Shigella sonnei EW 33 Type I; read-out: Minimal Inhibitory Conc. (MIC)
# [7] = system: Aspergillus flavus ATCC 6275; experiment: Antifungal Activity (in Industrial Field), MIC; details: ATCC6275, read-out: Minimal Inhibitory Conc. (MIC)
# [8] = system: Bacillus anthracis No. 119; experiment: microbe, parasite or virus in culture; details: NO.119, read-out: Minimal Inhibitory Conc. (MIC)
# Diaporithe citri = experiment: Antibacterial and Antifungal Activities (in Agricultural Field), MIC; details: read-out: Minimal Inhibitory Conc. (MIC)
# [9] = system: Staphylococcus aureus 209P JC-1; experiment: Antibacterial Activity (in medicinal field), MIC; details: read-out: Minimal Inhibitory Conc. (MIC)
# Pellicularia filamentosa = experiment: Antibacterial and Antifungal Activities (in Agricultural Field), MIC; details: read-out: Minimal Inhibitory Conc. (MIC)
# Botrytis cinerea = experiment: as above; details: read-out: Minimal Inhibitory Conc. (MIC)
# Alternaria kikuchiana = experiment: as above; details: read-out: Minimal Inhibitory Conc. (MIC)
# [10] = system: Xanthomonas campestris pv. citri; experiment: as above; details: read-out: Minimal Inhibitory Conc. (MIC)
# Gibberella fujikuroi = experiment: as above; details: Fusarium fujikuroi, read-out: Minimal Inhibitory Conc. (MIC)
# Proteus vulgaris OX-19 = experiment: Antibacterial Activity (in medicinal field), MIC; details: OX19, read-out: Minimal Inhibitory Conc. (MIC)
# [11] = system: Aspergillus terreus PQMD 82 j; experiment: Antifungal Activity (in Industrial Field), MIC; details: PQMD82J, read-out: Minimal Inhibitory Conc. (MIC)
# [12] = system: Xanthomonas campestris pv. oryzae; experiment: microbe, parasite or virus in culture; details: read-out: Minimal Inhibitory Conc. (MIC)
# [13] = system: Cryptococcus neoformans Cr-1; experiment: Antifungal Activity (in Medicinal Field), MIC; details: CR1, read-out: Minimal Inhibitory Conc. (MIC)
# [14] = system: Escherichia coli NIHJ JC-2; experiment: Antibacterial Activity (in medicinal field), MIC; details: NIHJJC2, read-out: Minimal Inhibitory Conc. (MIC)
# Candida alubicans GA-24 = experiment: Antifungal Activity (in Medicinal Field), MIC; details: GA24; Candida alubicans GA-24; read-out: Minimal Inhibitory Conc. (MIC)
# [15] = system: Aspergillus fumigatus Saito; experiment: Antifungal Activity (in Medicinal Field), MIC; details: read-out: Minimal Inhibitory Conc. (MIC)
# [16] = system: Pseudomonas syringae pv. tabaci; experiment: Antibacterial and Antifungal Activities (in Agricultural Field), MIC; details: read-out: Minimal Inhibitory Conc. (MIC)
# [17] = system: Colletotrichum lagenarium; experiment: as above; details: Colletotrichum orbiculare, read-out: Minimal Inhibitory Conc. (MIC)
# [18] = system: Trichophyton metagrophytes 530324; experiment: Antifungal Activity (in Medicinal Field), MIC; details: Trichophyton metagrophytes 530324; read-out: Minimal Inhibitory Conc. (MIC)
# Erwinia carotovora = experiment: Antibacterial and Antifungal Activities (in Agricultural Field), MIC; details: Pectobacterium carotovorum, read-out: Minimal Inhibitory Conc. (MIC)
# [19] = system: Klebsiella pneumoniae PCI-602; experiment: Antibacterial Activity (in medicinal field), MIC; details: PCI602, read-out: Minimal Inhibitory Conc. (MIC)
# [20] = system: Trichophyton interdigitale; experiment: Antifungal Activity (in Medicinal Field), MIC; details: read-out: Minimal Inhibitory Conc. (MIC)
# [21] = system: Trichoderma T-1 ATCC 9645; experiment: Antifungal Activity (in Industrial Field), MIC; details: ATCC9645, read-out: Minimal Inhibitory Conc. (MIC)
# [22] = system: Serratia marcescens MB-3848; experiment: Antibacterial Activity (in medicinal field), MIC; details: MB3848, read-out: Minimal Inhibitory Conc. (MIC)
# [23] = system: Rhizopus nigricans S.N. 32; experiment: Antifungal Activity (in Industrial Field), MIC; details: Rhizopus stolonifer, read-out: Minimal Inhibitory Conc. (MIC)
# Mucor spinescens IAM Mu3 = experiment: Antifungal Activity (in Industrial Field), MIC; details: IAMMU3, read-out: Minimal Inhibitory Conc. (MIC)
# [24] = system: Pseudomonas maltophilia M-0627; experiment: Antibacterial Activity (in medicinal field), MIC; details: Stenotrophomonas maltophilia, M0627, read-out: Minimal Inhibitory Conc. (MIC)
# [25] = system: Cladosporium herbarum IAM F-517; experiment: Antifungal Activity (in Industrial Field), MIC; details: IAMF517, read-out: Minimal Inhibitory Conc. (MIC)
# Cochliobolus miyabeanus = experiment: Antibacterial and Antifungal Activities (in Agricultural Field), MIC; details: Bipolaris oryzae, read-out: Minimal Inhibitory Conc. (MIC)
# [26] = system: Pseudomonas cepacia M-0527; experiment: Antibacterial Activity (in medicinal field), MIC; details: Burkholderia cepacia, M0527, read-out: Minimal Inhibitory Conc. (MIC)
# [27] = system: Penicillium luteum ATCC 9644; experiment: Antifungal Activity (in Industrial Field), MIC; details: Ascospirella lutea, ATCC9644, read-out: Minimal Inhibitory Conc. (MIC)
smiles,measurement,setting,value
"IC(I)=C(I)Cn1ncnn1 [2-(2',3',3'-triiodoallyl)tetrazole]",MIC,Glomerella cingulata,0.39 µg/mL
same,MIC,[1],0.76 µg/mL
same,MIC,Phricularia oryzae,3.13 µg/mL
same,MIC,[2],6.25 µg/mL
same,MIC,[3],1.56 µg/mL
same,MIC,[4],12.5 µg/mL
same,MIC,[5],12.5 µg/mL
same,MIC,Salmonella typhi O-901-W,6.25 µg/mL
same,MIC,[6],6.25 µg/mL
same,MIC,[7],0.78 µg/mL
same,MIC,[8],1.56 µg/mL
same,MIC,Diaporithe citri,0.78 µg/mL
same,MIC,"[9]; Staphylococcus aureus, 209P",6.25 µg/mL
same,MIC,Pellicularia filamentosa,50 µg/mL
same,MIC,Botrytis cinerea,0.39 µg/mL
same,MIC,Alternaria kikuchiana,3.13 µg/mL
same,MIC,[10],25 µg/mL
same,MIC,Gibberella fujikuroi,0.39 µg/mL
same,MIC,Proteus vulgaris OX-19,12.5 µg/mL
same,MIC,[11],0.78 µg/mL
same,MIC,[12],6.25 µg/mL
same,MIC,[13],0.78 µg/mL
same,MIC,[14],12.5 µg/mL
same,MIC,Candida alubicans GA-24,0.19 µg/mL
same,MIC,[15],0.19 µg/mL
same,MIC,[16],> 100 µg/mL
same,MIC,[17],0.78 µg/mL
same,MIC,[18],0.09 µg/mL
same,MIC,Erwinia carotovora,> 100 µg/mL
same,MIC,[19],12.5 µg/mL
same,MIC,[20],0.09 µg/mL
same,MIC,[21],3.13 µg/mL
same,MIC,[22],6.25 µg/mL
same,MIC,[23],3.13 µg/mL
same,MIC,Mucor spinescens IAM Mu3,1.56 µg/mL
same,MIC,[24],1.56 µg/mL
same,MIC,[25],6.25 µg/mL
same,MIC,Cochliobolus miyabeanus,1.56 µg/mL
same,MIC,[26],1.56 µg/mL
same,MIC,[27],6.25 µg/mL
"IC(I)=C(I)Cn1cnnn1 [1-(2',3',3'-triiodoallyl)tetrazole]",MIC,Salmonella typhi O-901-W,1.56 µg/mL
same,MIC,[6],3.13 µg/mL
same,MIC,[8],0.78 µg/mL
same,MIC,[9]; Staphylococcus aureus 209P JC-1,31.3 µg/mL
same,MIC,Proteus vulgaris OX-19,6.25 µg/mL
same,MIC,[13],3.12 µg/mL
same,MIC,[14],3.13 µg/mL
same,MIC,Candida alubicans GA-24,3.12 µg/mL
same,MIC,[15],0.78 µg/mL
same,MIC,[18],0.39 µg/mL
same,MIC,[19],3.13 µg/mL
same,MIC,[20],0.39 µg/mL
same,MIC,[22],3.13 µg/mL
same,MIC,[24],0.78 µg/mL
same,MIC,[26],0.78 µg/mL
